{"source": "PubChem BioAssay (NCI)", "assay_in_all_cases": "DTP human tumour cell line panel, 384-well format", "key": {"[1]": {"test_system": "786-0 renal"}, "[2]": {"test_system": "A498 renal"}, "[3]": {"test_system": "BT-549 breast"}, "[4]": {"test_system": "CAKI-1 renal"}, "[5]": {"test_system": "CCRF-CEM leukemia"}, "[6]": {"test_system": "COLO 205 colon"}, "[7]": {"test_system": "EKVX NSCLC"}, "[8]": {"test_system": "HCC-2998 colon"}, "[9]": {"test_system": "HCT-116 colon"}, "[10]": {"test_system": "HL-60(TB) leukemia"}, "[11]": {"test_system": "HOP-62 NSCLC"}, "[12]": {"test_system": "HOP-92 NSCLC"}, "[13]": {"test_system": "HS 578T breast"}, "[14]": {"test_system": "HT29 colon"}, "[15]": {"test_system": "K-562 leukemia"}, "[16]": {"test_system": "KM12 colon"}, "[17]": {"test_system": "LOX IMVI melanoma"}, "[18]": {"test_system": "M14 melanoma"}, "[19]": {"test_system": "MALME-3M melanoma"}, "[20]": {"test_system": "MCF7 breast"}, "[21]": {"test_system": "MDA-MB-231 breast"}, "[22]": {"test_system": "MDA-MB-435 melanoma"}, "[23]": {"test_system": "MOLT-4 leukemia"}, "[24]": {"test_system": "NCI-H226 lung"}, "[25]": {"test_system": "NCI-H23 lung"}, "[26]": {"test_system": "NCI-H460 NSCLC"}, "[27]": {"test_system": "NCI-H522 lung"}, "[28]": {"test_system": "NCI/ADR-RES ovarian"}, "[29]": {"test_system": "OVCAR-3 ovarian"}, "[30]": {"test_system": "OVCAR-4 ovarian"}, "[31]": {"test_system": "OVCAR-5 ovarian"}, "[32]": {"test_system": "OVCAR-8 ovarian"}, "[33]": {"test_system": "PC-3 prostate"}, "[34]": {"test_system": "RXF 393 renal"}, "[35]": {"test_system": "SF-268 CNS"}, "[36]": {"test_system": "SF-295 CNS"}, "[37]": {"test_system": "SF-539 CNS"}, "[38]": {"test_system": "SK-MEL-28 melanoma"}, "[39]": {"test_system": "SK-MEL-5 melanoma"}, "[40]": {"test_system": "SK-OV-3 ovarian"}, "[41]": {"test_system": "SN12C renal"}, "[42]": {"test_system": "SNB-19 CNS"}, "[43]": {"test_system": "SNB-75 CNS"}, "[44]": {"test_system": "SR leukemia"}, "[45]": {"test_system": "SW-620 colon"}, "[46]": {"test_system": "T-47D breast"}, "[47]": {"test_system": "TK-10 renal"}}, "note": "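GI50: concentration for 50% inhibition of growth. TGI: concentration producing complete growth inhibition.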", "data": [{"smiles": "CCNC(=O)c1cc2c(-c3cc(C(C)(C)O)ccc3Oc3c(C)cc(F)cc3C)cn(C)c(=O)c2[nH]1", "values": [{"measurement": "GI50", "setting": "[1]", "value": 1240, "unit": "nM"}, {"measurement": "TGI", "setting": "[1]", "value": 12300, "unit": "nM"}, {"measurement": "GI50", "setting": "[2]", "value": 1870, "unit": "nM"}, {"measurement": "TGI", "setting": "[2]", "value": 13000, "unit": "nM"}, {"measurement": "GI50", "setting": "[3]", "value": 298, "unit": "nM"}, {"measurement": "TGI", "setting": "[3]", "value": 1920, "unit": "nM"}, {"measurement": "GI50", "setting": "[4]", "value": 265, "unit": "nM"}, {"measurement": "TGI", "setting": "[4]", "value": 10700, "unit": "nM"}, {"measurement": "GI50", "setting": "[5]", "value": 1030, "unit": "nM"}, {"measurement": "TGI", "setting": "[5]", "value": 2370, "unit": "nM"}, {"measurement": "GI50", "setting": "[6]", "value": 1100, "unit": "nM"}, {"measurement": "TGI", "setting": "[6]", "value": 2750, "unit": "nM"}, {"measurement": "GI50", "setting": "[7]", "value": 3230, "unit": "nM"}, {"measurement": "TGI", "setting": "[7]", "value": 13900, "unit": "nM"}, {"measurement": "GI50", "setting": "[8]", "value": 542, "unit": "nM"}, {"measurement": "TGI", "setting": "[8]", "value": 2030, "unit": "nM"}, {"measurement": "GI50", "setting": "[9]", "value": 1370, "unit": "nM"}, {"measurement": "TGI", "setting": "[9]", "value": 10300, "unit": "nM"}, {"measurement": "GI50", "setting": "[10]", "value": 145, "unit": "nM"}, {"measurement": "TGI", "setting": "[10]", "value": 618, "unit": "nM"}, {"measurement": "GI50", "setting": "[11]", "value": 1030, "unit": "nM"}, {"measurement": "TGI", "setting": "[11]", "value": 4950, "unit": "nM"}, {"measurement": "GI50", "setting": "[12]", "value": 1430, "unit": "nM"}, {"measurement": "TGI", "setting": "[12]", "value": 11800, "unit": "nM"}, {"measurement": "GI50", "setting": "[13]", "value": 125, "unit": "nM"}, {"measurement": "TGI", "setting": "[13]", "value": 2020, "unit": "nM"}, {"measurement": "GI50", "setting": "[14]", "value": 1240, "unit": "nM"}, {"measurement": "TGI", "setting": "[14]", "value": 13400, "unit": "nM"}, {"measurement": "GI50", "setting": "[15]", "value": 879, "unit": "nM"}, {"measurement": "TGI", "setting": "[15]", "value": 10700, "unit": "nM"}, {"measurement": "GI50", "setting": "[16]", "value": 1420, "unit": "nM"}, {"measurement": "TGI", "setting": "[16]", "value": 11200, "unit": "nM"}, {"measurement": "GI50", "setting": "[17]", "value": 507, "unit": "nM"}, {"measurement": "TGI", "setting": "[17]", "value": 1840, "unit": "nM"}, {"measurement": "GI50", "setting": "[18]", "value": 1590, "unit": "nM"}, {"measurement": "TGI", "setting": "[18]", "value": 16900, "unit": "nM"}, {"measurement": "GI50", "setting": "[19]", "value": 1150, "unit": "nM"}, {"measurement": "TGI", "setting": "[19]", "value": 3360, "unit": "nM"}, {"measurement": "GI50", "setting": "[20]", "value": 48.4, "unit": "nM"}, {"measurement": "TGI", "setting": "[20]", "value": 1820, "unit": "nM"}, {"measurement": "GI50", "setting": "[21]", "value": 505, "unit": "nM"}, {"measurement": "TGI", "setting": "[21]", "value": 12100, "unit": "nM"}, {"measurement": "GI50", "setting": "[22]", "value": 5220, "unit": "nM"}, {"measurement": "TGI", "setting": "[22]", "value": 19100, "unit": "nM"}, {"measurement": "GI50", "setting": "[23]", "value": 432, "unit": "nM"}, {"measurement": "TGI", "setting": "[23]", "value": 1900, "unit": "nM"}, {"measurement": "GI50", "setting": "[24]", "value": 1260, "unit": "nM"}, {"measurement": "TGI", "setting": "[24]", "value": 11500, "unit": "nM"}, {"measurement": "GI50", "setting": "[25]", "value": 725, "unit": "nM"}, {"measurement": "TGI", "setting": "[25]", "value": 2810, "unit": "nM"}, {"measurement": "GI50", "setting": "[26]", "value": 2870, "unit": "nM"}, {"measurement": "TGI", "setting": "[26]", "value": 12400, "unit": "nM"}, {"measurement": "GI50", "setting": "[27]", "value": 17.6, "unit": "nM"}, {"measurement": "TGI", "setting": "[27]", "value": 933, "unit": "nM"}, {"measurement": "GI50", "setting": "[28]", "value": 12300, "unit": "nM"}, {"measurement": "TGI", "setting": "[28]", "value": 26100, "unit": "nM"}, {"measurement": "GI50", "setting": "[29]", "value": 602, "unit": "nM"}, {"measurement": "TGI", "setting": "[29]", "value": 2460, "unit": "nM"}, {"measurement": "GI50", "setting": "[30]", "value": 201, "unit": "nM"}, {"measurement": "TGI", "setting": "[30]", "value": 870, "unit": "nM"}, {"measurement": "GI50", "setting": "[31]", "value": 1030, "unit": "nM"}, {"measurement": "TGI", "setting": "[31]", "value": 9890, "unit": "nM"}, {"measurement": "GI50", "setting": "[32]", "value": 1120, "unit": "nM"}, {"measurement": "TGI", "setting": "[32]", "value": 2550, "unit": "nM"}, {"measurement": "GI50", "setting": "[33]", "value": 1410, "unit": "nM"}, {"measurement": "TGI", "setting": "[33]", "value": 12600, "unit": "nM"}, {"measurement": "GI50", "setting": "[34]", "value": 1220, "unit": "nM"}, {"measurement": "TGI", "setting": "[34]", "value": 3550, "unit": "nM"}, {"measurement": "GI50", "setting": "[35]", "value": 2290, "unit": "nM"}, {"measurement": "TGI", "setting": "[35]", "value": 11400, "unit": "nM"}, {"measurement": "GI50", "setting": "[36]", "value": 3000, "unit": "nM"}, {"measurement": "TGI", "setting": "[36]", "value": 11100, "unit": "nM"}, {"measurement": "GI50", "setting": "[37]", "value": 1530, "unit": "nM"}, {"measurement": "TGI", "setting": "[37]", "value": 10100, "unit": "nM"}, {"measurement": "GI50", "setting": "[38]", "value": 2960, "unit": "nM"}, {"measurement": "TGI", "setting": "[38]", "value": 15900, "unit": "nM"}, {"measurement": "GI50", "setting": "[39]", "value": 1270, "unit": "nM"}, {"measurement": "TGI", "setting": "[39]", "value": 3680, "unit": "nM"}, {"measurement": "GI50", "setting": "[40]", "value": 412, "unit": "nM"}, {"measurement": "TGI", "setting": "[40]", "value": 3740, "unit": "nM"}, {"measurement": "GI50", "setting": "[41]", "value": 3230, "unit": "nM"}, {"measurement": "TGI", "setting": "[41]", "value": 13600, "unit": "nM"}, {"measurement": "GI50", "setting": "[42]", "value": 2010, "unit": "nM"}, {"measurement": "TGI", "setting": "[42]", "value": 13200, "unit": "nM"}, {"measurement": "GI50", "setting": "[43]", "value": 1500, "unit": "nM"}, {"measurement": "TGI", "setting": "[43]", "value": 10300, "unit": "nM"}, {"measurement": "GI50", "setting": "[44]", "value": 32.8, "unit": "nM"}, {"measurement": "TGI", "setting": "[44]", "value": 1300, "unit": "nM"}, {"measurement": "GI50", "setting": "[45]", "value": 2970, "unit": "nM"}, {"measurement": "TGI", "setting": "[45]", "value": 15600, "unit": "nM"}, {"measurement": "GI50", "setting": "[46]", "value": 1310, "unit": "nM"}, {"measurement": "TGI", "setting": "[46]", "value": 8300, "unit": "nM"}, {"measurement": "GI50", "setting": "[47]", "value": 366, "unit": "nM"}, {"measurement": "TGI", "setting": "[47]", "value": 2960, "unit": "nM"}]}]}
